Holding throughout (test): Kinobeads competition binding, HL60 cell lysate
Details in all cases: 10 μM free compound

The target of one experiment is T1, MST4 (Homo sapiens, UniProt Q9P289).
T1 construct: endogenous in cells; host or cells: HL60
How it is done:
(§1) To one aliquot of cell lysate 10 μM of the free compound (FIG. 3, CZC31326) was added and allowed to bind to proteins in the lysate. Then the affinity matrix with the immobilized compound (Example 1) was added to capture proteins that were not interacting with the previously added free compound. Beads were separated from the lysate and bead bound proteins were eluted in SDS sample buffer and subsequently separated by SDS-Polyacrylamide gel electrophoresis (FIG. 4). Suitable gel bands were cut out and subjected to in-gel proteolytic digestion with trypsin. The second lysate aliquot was processed identically, however no free compound was added (DMSO solvent control). Peptides originating from samples 1 and 2 were labeled with iTRAQ reagents (iTRAQ 114 and iTRAQ 117) and the combined samples were analyzed with a nano-flow liquid chromatography system coupled online to a tandem mass spectrometer (LC-MS/MS) experiment followed by iTRAQ reporter ion quantification in the MS/MS spectra (Ross et al., 2004. Mol. Cell. Proteomics 3(12):1154-1169). Further experimental protocols can be found in WO2006/134056 and a previous publication (Bantscheff et al., 2007. Nature Biotechnology 25, 1035-1044). Sepharose-beads with the immobilized compound (100 μl beads per pull-down experiment) were equilibrated in lysis buffer and incubated with a cell lysate sample containing 50 mg of protein on an end-over-end shaker (Roto Shake Genie, Scientific Industries Inc.) for 2 hours at 4° C. Beads were collected, transferred to Mobicol-columns (MoBiTech 10055) and washed with 10 ml lysis buffer containing 0.4% NP40 detergent, followed by 5 ml lysis buffer containing 0.2% detergent. To elute bound proteins, 60 μl 2×SDS sample buffer was added to the column. The column was incubated for 30 minutes at 50° C. and the eluate was transferred to a siliconized microfuge tube by centrifugation. Proteins were then alkylated with 108 mM iodoacetamid. Proteins were then separated by SDS-Polyacrylamide electrophoresis (SDS-PAGE). The peptide extracts of samples treated with 10 μM of free compound (CZC31326) and the solvent control (0.5% DMSO) were treated with different variants of the isobaric tagging reagent (iTRAQ Reagents Multiplex Kit, part number 4352135, Applied Biosystems, Foster City, Calif., USA). The iTRAQ reagents are a set of multiplexed, amine-specific, stable isotope reagents that can label peptides on amino groups in up to four different biological samples enabling simultaneous identification and quantitation of peptides. The iTRAQ reagents were used according to instructions provided by the manufacturer. The samples were resuspended in 10 μl 50 mM TEAB solution, pH 8.5 and 10 μl ethanol were added. The iTRAQ reagent was dissolved in 120 μl ethanol and 10 μl of reagent solution were added to the sample. The labeling reaction was performed at room temperature for one hour on a horizontal shaker and stopped by adding 5 μl of 100 mM TEAB and 100 mM glycine in water. The two labeled sampled were then combined, dried in a vacuum centrifuge and resuspended in 10 μl of 0.1% formic acid in water. Relative protein quantitation was performed using peak areas of iTRAQ reporter ion signals essentially as described in an earlier publication (Bantscheff et al., 2007. Nature Biotechnology 25, 1035-1044).

The target in another experiment is T2, DYRKIA (Homo sapiens, UniProt Q13627).
T2 construct: endogenous in cells; host or cells: HL60 (DSMZ ACC3)
The procedure:
as §1

In the next experiment the target is T3, GAK (Homo sapiens, UniProt O14976).
T3 sequence (O14976 1-1311): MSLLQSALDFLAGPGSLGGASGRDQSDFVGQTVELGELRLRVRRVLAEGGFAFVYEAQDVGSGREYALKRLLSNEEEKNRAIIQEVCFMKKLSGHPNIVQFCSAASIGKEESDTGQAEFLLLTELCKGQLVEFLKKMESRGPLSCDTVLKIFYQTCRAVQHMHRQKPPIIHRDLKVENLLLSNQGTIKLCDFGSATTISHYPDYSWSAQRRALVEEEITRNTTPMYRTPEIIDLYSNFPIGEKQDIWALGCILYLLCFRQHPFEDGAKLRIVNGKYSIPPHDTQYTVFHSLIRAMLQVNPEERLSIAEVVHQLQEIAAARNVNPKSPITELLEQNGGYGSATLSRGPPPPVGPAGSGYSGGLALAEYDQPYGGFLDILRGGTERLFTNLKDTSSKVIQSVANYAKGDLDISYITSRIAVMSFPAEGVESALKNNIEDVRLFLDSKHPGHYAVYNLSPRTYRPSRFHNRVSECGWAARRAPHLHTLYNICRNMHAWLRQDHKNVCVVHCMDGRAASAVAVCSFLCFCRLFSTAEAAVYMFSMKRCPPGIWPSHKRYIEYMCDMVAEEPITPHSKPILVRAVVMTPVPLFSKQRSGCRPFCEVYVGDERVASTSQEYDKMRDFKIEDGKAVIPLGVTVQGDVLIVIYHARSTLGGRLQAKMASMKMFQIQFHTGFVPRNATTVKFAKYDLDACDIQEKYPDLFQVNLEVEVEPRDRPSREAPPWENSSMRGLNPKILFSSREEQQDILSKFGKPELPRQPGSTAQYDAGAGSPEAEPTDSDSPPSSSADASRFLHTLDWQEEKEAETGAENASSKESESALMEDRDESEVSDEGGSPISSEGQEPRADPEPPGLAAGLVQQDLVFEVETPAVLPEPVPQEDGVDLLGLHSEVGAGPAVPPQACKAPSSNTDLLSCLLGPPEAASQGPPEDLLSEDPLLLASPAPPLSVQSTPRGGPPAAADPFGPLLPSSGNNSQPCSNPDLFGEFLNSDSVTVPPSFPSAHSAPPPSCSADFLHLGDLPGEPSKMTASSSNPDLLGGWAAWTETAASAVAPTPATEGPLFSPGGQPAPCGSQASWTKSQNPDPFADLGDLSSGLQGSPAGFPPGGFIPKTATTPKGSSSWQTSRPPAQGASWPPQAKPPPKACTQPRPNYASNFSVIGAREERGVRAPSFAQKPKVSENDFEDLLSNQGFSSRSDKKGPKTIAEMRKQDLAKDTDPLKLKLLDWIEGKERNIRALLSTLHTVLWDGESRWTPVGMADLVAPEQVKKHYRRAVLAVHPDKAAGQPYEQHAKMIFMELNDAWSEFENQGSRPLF
How it is done: as §1

For another experiment, the target named is T4, CDK10 (Homo sapiens, UniProt Q15131).
T4 construct: endogenous in cells; host or cells: HL60 cells
The procedure: as §1

The results in this text go back to patent US20120270237A9, “METHODS FOR THE IDENTIFICATION OF KINASE INTERACTING MOLECULES AND FOR THE PURIFICATION OF KINASE PROTEINS” (Cellzone AG, priority 2009, published 2012).

One may read the inhibition as the drop in the measured response relative to a control, in per cent.

T4 sequence (Q15131 whole entry): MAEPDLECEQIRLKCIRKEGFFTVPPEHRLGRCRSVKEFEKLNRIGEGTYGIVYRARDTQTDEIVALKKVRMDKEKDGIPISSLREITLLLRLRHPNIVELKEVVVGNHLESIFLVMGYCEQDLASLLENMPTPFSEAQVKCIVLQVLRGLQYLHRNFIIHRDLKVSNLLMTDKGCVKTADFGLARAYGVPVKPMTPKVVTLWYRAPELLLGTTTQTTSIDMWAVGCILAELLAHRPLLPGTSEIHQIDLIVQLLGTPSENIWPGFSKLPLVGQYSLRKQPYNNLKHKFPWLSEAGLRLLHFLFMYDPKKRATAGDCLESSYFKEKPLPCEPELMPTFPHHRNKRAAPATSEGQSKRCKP
T1 sequence (Q9P289 whole entry): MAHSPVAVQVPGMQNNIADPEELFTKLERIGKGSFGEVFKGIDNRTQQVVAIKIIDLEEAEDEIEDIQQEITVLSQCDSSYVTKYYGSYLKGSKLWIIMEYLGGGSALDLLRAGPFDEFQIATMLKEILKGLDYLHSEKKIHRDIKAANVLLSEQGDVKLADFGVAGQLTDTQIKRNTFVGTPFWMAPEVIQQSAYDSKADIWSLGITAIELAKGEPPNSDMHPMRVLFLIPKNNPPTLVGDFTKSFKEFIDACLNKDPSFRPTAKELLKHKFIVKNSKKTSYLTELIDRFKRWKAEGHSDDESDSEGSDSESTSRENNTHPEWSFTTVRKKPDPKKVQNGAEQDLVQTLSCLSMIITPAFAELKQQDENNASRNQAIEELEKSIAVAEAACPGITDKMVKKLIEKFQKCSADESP

On to `CS(=O)(=O)Nc1ccccc1Nc1nc(Nc2cccc(OCCN)c2)ncc1Cl` [CZC31326, N-(2-(2-(3-(2-aminoethoxy)phenylamino)-5-chloropyrimidin-4-ylamino)phenyl)methanesulfonamide], for which the inhibition at 10 µM at MST4 came out at 96.1%; on DYRKIA it was 96.1%; on GAK, 97.9%; on CDK10, 96.7%.
